O=C(O)/C=C/C(=O)O
solubility (mole fraction)
Conditions	in acetone	in ethanol	in isopropanol	in n-propanol	in water
279 K	0.00344	0.0126	0.0109	0.00847	0.000136
285 K	0.00419	0.014	0.0138	0.0103	0.000435
291 K	0.00498	0.0157	0.0169	0.0122	0.000813
297 K	0.00583	0.0178	0.0202	0.0143	0.00125
303 K	0.00673	0.0205	0.0236	0.0165	0.00171
309 K	0.00768	0.0233	0.0272	0.0189	0.00221
315 K	0.00867	0.0267	0.031	0.0215	0.00265
321 K	0.00972	0.0305	0.0349	0.0243	0.00328
327 K	0.0108	0.0344	0.0391	0.0274	0.00415
333 K	0.012	0.0383	0.0435	0.0306	0.00541
339 K	–	–	–	0.0355	0.00624
342 K	–	–	0.0538	–	–
343 K	–	0.0451	–	–	–
345 K	–	–	–	0.0398	–
351 K	–	–	0.0656	–	–
351.8 K	–	–	–	0.0486	–
353 K	–	–	–	–	0.00884

Reference: BigSolDB 2.1
